Assay results from patent publication US20250368625A1, “PIPERAZINES” (Grünenthal GmbH, priority 2024, published 2025).

Target: T1, human SSTR4 (Homo sapiens, UniProt P31391)
T1 construct: expressed in transfected cells; host or cells: CHO-K1
Test: hSSTR4 cAMP assay (cAMP accumulation, LANCE Ultra cAMP kit, CHO-K1 human SSTR4 Gi cell line)
Type: cell-based
Conditions: functional agonism, forskolin 10 μM stimulated CHO-K1 human SSTR4 Gi cells, 30 min at 25° C., at least duplicate, averaged; read-out: hSSTR4 EC50
Summary of the method: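 CHO-K1 cells expressing human SSTR4 (Gi), pre-cultured 18-20 h or thawed and used directly, stimulated with 10 μM forskolin plus test agonist in concentration series, 30 min at 25° C. Lysate cAMP read by TR-FRET (Eu-cAMP tracer/ULight-anti-cAMP, 1 h, 25° C). Normalized to forskolin-only and forskolin+100 nM SST14 controls, 4-parameter fit; ≥duplicate, averaged.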

T1 sequence (P31391 whole entry): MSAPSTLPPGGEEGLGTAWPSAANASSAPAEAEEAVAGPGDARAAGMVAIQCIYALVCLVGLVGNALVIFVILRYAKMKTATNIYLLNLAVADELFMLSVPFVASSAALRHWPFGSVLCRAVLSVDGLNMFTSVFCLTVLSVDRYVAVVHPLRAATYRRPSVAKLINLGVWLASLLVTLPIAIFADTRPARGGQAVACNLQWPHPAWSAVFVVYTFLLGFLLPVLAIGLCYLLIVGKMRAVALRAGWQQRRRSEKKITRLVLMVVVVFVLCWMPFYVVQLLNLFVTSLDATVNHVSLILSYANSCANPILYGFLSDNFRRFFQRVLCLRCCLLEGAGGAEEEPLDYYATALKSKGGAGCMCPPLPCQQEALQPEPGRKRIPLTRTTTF

| Compound | EC50 [nM] |
| --- | --- |
| Cn1cc(CN2CCNC[C@H]2C(=O)NC(C)(C)c2ncc3c(C(F)(F)F)cccn23)cn1 [SC-111, (S)-1-((1-methyl-1H-pyrazol-4-yl)methyl)-N-(2-(8-(trifluoromethyl)imidazo[1,5-a]pyridin-3-yl)propan-2-yl)piperazine-2-carboxamide] | 94 |
| CN1CCN[C@H](C(=O)NC(C)(C)c2ncc3c(C(F)(F)F)cccn23)C1 [SC-112, (S)-4-methyl-N-(2-(8-(trifluoromethyl)imidazo[1,5-a]pyridin-3-yl)propan-2-yl)piperazine-2-carboxamide] | 490 |
| CC(C)(NC(=O)[C@@H]1CNCCN1CC1CC(F)(F)C1)c1ncc2c(C(F)(F)F)cccn12 [SC-113, (S)-1-((3,3-difluorocyclobutyl)methyl)-N-(2-(8-(trifluoromethyl)imidazo[1,5-a]pyridin-3-yl)propan-2-yl)piperazine-2-carboxamide] | 26 |
| Cc1cccn2c(C(C)(C)NC(=O)[C@@H]3CN(C)CCN3)nc(C)c12 [SC-116, (S)-N-(2-(1,8-dimethylimidazo[1,5-a]pyridin-3-yl)propan-2-yl)-4-methylpiperazine-2-carboxamide] | 32 |
| CN1CCNC[C@H]1C(=O)NC(C)(C)c1ncc2c(C3CC3)cccn12 [SC-118, (S)-N-(2-(8-cyclopropylimidazo[1,5-a]pyridin-3-yl)propan-2-yl)-1-methylpiperazine-2-carboxamide] | 15 |
| CN1CCN[C@H](C(=O)NC(C)(C)c2ncc3c(C4CC4)cccn23)C1 [SC-119, (S)-N-(2-(8-cyclopropylimidazo[1,5-a]pyridin-3-yl)propan-2-yl)-4-methylpiperazine-2-carboxamide] | 540 |
| Cn1cc(CN2CCNC[C@H]2C(=O)NC(C)(C)c2ncc3c(C4CC4)cccn23)cn1 [SC-120, (S)-N-(2-(8-cyclopropylimidazo[1,5-a]pyridin-3-yl)propan-2-yl)-1-((1-methyl-1H-pyrazol-4-yl)methyl)piperazine-2-carboxamide] | 53 |
| CC(C)(NC(=O)[C@@H]1CNCCN1CC1CC(F)(F)C1)c1ncc2c(C3CC3)cccn12 [SC-121, (S)-N-(2-(8-cyclopropylimidazo[1,5-a]pyridin-3-yl)propan-2-yl)-1-((3,3-difluorocyclobutyl)methyl)piperazine-2-carboxamide] | 16 |
| Cn1nc(C(C)(C)NC(=O)[C@@H]2CNCCN2CC2COC2)c2ccccc21 [SC-123, (S)—N-(2-(1-methyl-1H-indazol-3-yl)propan-2-yl)-1-(oxetan-3-ylmethyl)piperazine-2-carboxamide] | 7.1 |
| CN1CCNC[C@H]1C(=O)NC(C)(C)c1nnc2c(Cl)cccn12 [SC-125, (S)-N-(2-(8-chloro-[1,2,4]triazolo[4,3-a]pyridin-3-yl)propan-2-yl)-1-methylpiperazine-2-carboxamide] | 1110 |

Molecules with a lower EC50, results first:

| EC50 [nM] | Compound |
| --- | --- |
| 0.38 | Cc1cccn2c(C(C)(C)NC(=O)[C@@H]3CNCCN3C)nc(C)c12 [SC-114, (S)-N-(2-(1,8-dimethylimidazo[1,5-a]pyridin-3-yl)propan-2-yl)-1-methylpiperazine-2-carboxamide] |
| 0.34 | Cc1cccn2c(C(C)(C)NC(=O)[C@@H]3CNCCN3CC3CC(F)(F)C3)nc(C)c12 [SC-115, (S)-1-((3,3-difluorocyclobutyl)methyl)-N-(2-(1,8-dimethylimidazo[1,5-a]pyridin-3-yl)propan-2-yl)piperazine-2-carboxamide] |
| 1.6 | Cc1cccn2c(C(C)(C)NC(=O)[C@@H]3CNCCN3Cc3cnn(C)c3)nc(C)c12 [SC-117, (S)-N-(2-(1,8-dimethylimidazo[1,5-a]pyridin-3-yl)propan-2-yl)-1-((1-methyl-1H-pyrazol-4-yl)methyl)piperazine-2-carboxamide] |
| 1.2 | Cc1cccc2c(C(C)(C)NC(=O)[C@@H]3CNCCN3CC3COC3)n[nH]c12 [SC-122, (S)—N-(2-(7-methyl-1H-indazol-3-yl)propan-2-yl)-1-(oxetan-3-ylmethyl)piperazine-2-carboxamide] |
| 4.7 | Cc1cccc2c(C(C)(C)NC(=O)[C@@H]3CNCCN3C)noc12 [SC-124, (S)-1-methyl-N-(2-(7-methylbenzo[d]isoxazol-3-yl)propan-2-yl)piperazine-2-carboxamide] |
| 2.6 | Cc1cccc2c(C(C)(C)NC(=O)[C@@H]3CNCCN3C)nn(C)c12 [SC-126, (S)-N-(2-(1,7-dimethyl-1H-indazol-3-yl)propan-2-yl)-1-methylpiperazine-2-carboxamide] |
| 1.1 | Cc1cccn2c(C(C)(C)NC(=O)[C@@H]3CNCCN3CC(F)F)ncc12 [SC-127, (S)-1-(2,2-difluoroethyl)-N-(2-(8-methylimidazo[1,5-al]pyridin-3-yl)propan-2-yl)piperazine-2-carboxamide] |
| 3.8 | COc1cccn2c(C(C)(C)NC(=O)[C@@H]3CNCCN3C)ncc12 [SC-128, (S)-N-(2-(8-methoxyimidazo[1,5-a]pyridin-3-yl)propan-2-yl)-1-methylpiperazine-2-carboxamide] |
| 2.8 | CN1CCNC[C@H]1C(=O)NC(C)(C)c1n[nH]c2c(F)cccc12 [SC-129, (S)-N-(2-(7-fluoro-1H-indazol-3-yl)propan-2-yl)-1-methylpiperazine-2-carboxamide] |
